Reference: ChEMBL document CHEMBL4382231, “Chemical preparation, biological evaluation and 3D-QSAR of ethoxysulfuron derivatives as novel antifungal agents targeting acetohydroxyacid synthase” (Eur J Med Chem, 2019)
Converted amounts (≈) assume the structure as drawn. The source made the active and inactive calls. The rule behind the calls is not given here.

Experiments:
[1] = Inhibition of Candida albicans AHAS catalytic subunit using pyruvate as substrate measured after 30 mins by colorimetric method
Candida albicans [2] = assay: Antifungal activity against Candida albicans SC5314 infected in Caenorhabditis elegans assessed as mortality at 20 nM after 24 hrs by propidium iodide staining based fluorescence microscopic analysis (reference value: 17%); assay type: functional
Candida albicans [3] = assay: Antifungal activity against Candida albicans SC5314 cultured in RPMI 1640 media after 24 hrs by broth microdilution method; assay type: functional; conditions: SC5314, 24 h
Candida albicans [4] = assay: Antifungal activity against Candida albicans SC5314 cultured in YNB media after 24 hrs by broth microdilution method; assay type: functional; conditions: SC5314, 24 h
Candida albicans [5] = assay: Antifungal activity against Candida albicans SC5314 cultured in YNB media after 48 hrs by broth microdilution method; assay type: functional
Candida albicans [6] = assay: Antifungal activity against Candida albicans SC5314 cultured in YNB media after 72 hrs by broth microdilution method; assay type: functional
Candida albicans [7] = assay: Antifungal activity against fluconazole-resistant Candida albicans isolate 17 cultured in YNB media after 24 hrs by broth microdilution method; assay type: functional
Candida albicans [8] = assay: Antifungal activity against fluconazole-resistant Candida albicans isolate 17 cultured in YNB media after 48 hrs by broth microdilution method; assay type: functional
Candida albicans [9] = assay: Antifungal activity against fluconazole-resistant Candida albicans isolate 17 cultured in YNB media after 72 hrs by broth microdilution method; assay type: functional
Candida albicans [10] = assay: Antifungal activity against fluconazole-resistant Candida albicans isolate g5 cultured in YNB media after 24 hrs by broth microdilution method; assay type: functional
Candida albicans [11] = assay: Antifungal activity against fluconazole-resistant Candida albicans isolate g5 cultured in YNB media after 48 hrs by broth microdilution method; assay type: functional
Candida albicans [12] = assay: Antifungal activity against fluconazole-resistant Candida albicans isolate g5 cultured in YNB media after 72 hrs by broth microdilution method; assay type: functional
Saccharomyces cerevisiae [13] = assay: Antifungal activity against Saccharomyces cerevisiae SC XH1549 cultured in YNB media after 24 hrs by broth microdilution method; assay type: functional; conditions: SC XH1549, 24 h
Saccharomyces cerevisiae [14] = assay: Antifungal activity against Saccharomyces cerevisiae SC XH1549 cultured in YNB media after 48 hrs by broth microdilution method; assay type: functional
Saccharomyces cerevisiae [15] = assay: Antifungal activity against Saccharomyces cerevisiae SC XH1549 cultured in YNB media after 72 hrs by broth microdilution method; assay type: functional
Candida parapsilosis [16] = assay: Antifungal activity against Candida parapsilosis ATCC 22019 cultured in YNB media after 24 hrs by broth microdilution method; assay type: functional; conditions: Lodderomyces parapsilosis, ATCC 22019, 24 h
Candida parapsilosis [17] = assay: Antifungal activity against Candida parapsilosis ATCC 22019 cultured in YNB media after 48 hrs by broth microdilution method; assay type: functional
Candida parapsilosis [18] = assay: Antifungal activity against Candida parapsilosis ATCC 22019 cultured in YNB media after 72 hrs by broth microdilution method; assay type: functional
[19] = Toxicity in po dosed rat; assay type: organism-based; conditions: in vivo
[20] = Toxicity in topically applied rabbit; set-up: species or system Oryctolagus cuniculus; conditions: in vivo, topical or ocular
Candida albicans [21] = assay: Ratio of MIC for Candida albicans SC5314 cultured in RPMI 1640 media to MIC for Candida albicans SC5314 cultured in YNB media; assay type: functional
[22] = Lodderomyces parapsilosis, ATCC 22019, 48 h
[23] = Lodderomyces parapsilosis, ATCC 22019, 72 h

| Structure (SMILES) | Ki [1] | pKi [1] | Activity (Candida albicans [2]) | MIC (Candida albicans [3]) | MIC (Candida albicans [4]) | MIC (Candida albicans [5]; SC5314, 48 h) | MIC (Candida albicans [6]; SC5314, 72 h) | MIC (Candida albicans [7]; isolate 17, 24 h) | MIC (Candida albicans [8]; isolate 17, 48 h) | MIC (Candida albicans [9]; isolate 17, 72 h) | MIC (Candida albicans [10]; isolate g5, 24 h) | MIC (Candida albicans [11]; isolate g5, 48 h) | MIC (Candida albicans [12]; isolate g5, 72 h) | MIC (Saccharomyces cerevisiae [13]) | MIC (Saccharomyces cerevisiae [14]; SC XH1549, 48 h) | MIC (Saccharomyces cerevisiae [15]; SC XH1549, 72 h) | MIC (Candida parapsilosis [16]) | MIC (Candida parapsilosis [17]; [22]) | MIC (Candida parapsilosis [18]; [23]) | Ratio IC50 (Candida albicans [21]) | also measured |
| --- | --- | --- | --- | --- | --- | --- | --- | --- | --- | --- | --- | --- | --- | --- | --- | --- | --- | --- | --- | --- | --- |
| CCOc1ccccc1OS(=O)(=O)NC(=O)Nc1nc(OC)cc(OC)n1 [ETHOXYSULFURON] | 21.6 nM | 7.66 | 3% | 12.5 µg/mL (≈ 31.4 µM) | 0.625 µg/mL (≈ 1.57 µM) | 1.25 µg/mL (≈ 3.14 µM) | 1.25 µg/mL (≈ 3.14 µM) | 1.25 µg/mL (≈ 3.14 µM) | 2.5 µg/mL (≈ 6.28 µM) | 2.5 µg/mL (≈ 6.28 µM) | 1.25 µg/mL (≈ 3.14 µM) | 1.25 µg/mL (≈ 3.14 µM) | 2.5 µg/mL (≈ 6.28 µM) | 5 µg/mL (≈ 12.6 µM) | 5 µg/mL (≈ 12.6 µM) | 5 µg/mL (≈ 12.6 µM) | 1.25 µg/mL (≈ 3.14 µM) | 2.5 µg/mL (≈ 6.28 µM) | 2.5 µg/mL (≈ 6.28 µM) |  |  |
| CCOC(=O)c1ccccc1S(=O)(=O)NC(=O)Nc1nc(Cl)cc(OC)n1 [CHLORIMURON ETHYL] |  |  | 8% |  |  |  |  |  |  |  |  |  |  |  |  |  |  |  |  |  | LD50 [19]: > 4000 mg/kg; LD50 [20]: > 2000 mg/kg |
| OC(Cn1cncn1)(Cn1cncn1)c1ccc(F)cc1F [FLUCONAZOLE] |  |  | 5% | 0.25 µg/mL (≈ 0.816 µM) | 0.25 µg/mL (≈ 0.816 µM) |  |  |  |  |  |  |  |  | 0.25 µg/mL (≈ 0.816 µM) |  |  | 0.25 µg/mL (≈ 0.816 µM) |  |  |  | MIC (Candida albicans [5]): inactive; MIC (Candida albicans [6]): inactive; MIC (Candida albicans [7]): inactive; MIC (Candida albicans [8]): inactive; MIC (Candida albicans [9]): inactive; MIC (Candida albicans [10]): inactive; MIC (Candida albicans [11]): inactive; MIC (Candida albicans [12]): inactive; MIC (Saccharomyces cerevisiae [14]): inactive; MIC (Saccharomyces cerevisiae [15]): inactive; MIC (Candida parapsilosis [17]): inactive; MIC (Candida parapsilosis [18]): inactive |
| CCOC(=O)c1ccccc1OS(=O)(=O)[N-]C(=O)Nc1nc(OC)cc(OC)n1.[Na+] | 6.7 nM | 8.17 | 7% | 25 µg/mL | 1.25 µg/mL | 2.5 µg/mL | 2.5 µg/mL | 2.5 µg/mL | 5 µg/mL | 5 µg/mL | 2.5 µg/mL | 2.5 µg/mL | 2.5 µg/mL | 2.5 µg/mL | 5 µg/mL | 5 µg/mL | 1.25 µg/mL | 2.5 µg/mL | 2.5 µg/mL | 20 |  |
| COc1cc(OC)nc(NC(=O)[N-]S(=O)(=O)Oc2ccccc2OCCI)n1.[Na+] | 125 nM | 6.9 |  | 50 µg/mL | 2.5 µg/mL | 5 µg/mL | 10 µg/mL | 5 µg/mL | 10 µg/mL | 20 µg/mL | 5 µg/mL | 10 µg/mL | 20 µg/mL | 80 µg/mL | > 80 µg/mL | > 80 µg/mL | 5 µg/mL | 20 µg/mL | 20 µg/mL | 20 |  |
